Experimental findings from PMC6680226, “Peptoid Efficacy against Polymicrobial Biofilms Determined by Using Propidium Monoazide‐Modified Quantitative PCR” (Chembiochem, 2016) are described below.

Data set [1] concerns E. coli in polymicrobial biofilm with C. albicans. Kind of data set: PMA-qPCR, E. coli within C. albicans-E. coli polymicrobial biofilm. Format: cell-based, Escherichia coli. As for the experimental part:
(§1) Preparation and treatment of polymicrobial biofilms: Overnight cultures of C. albicans were prepared in microtitre plates as above, and allowed to adhere for 4 h to facilitate initial biofilm formation. Planktonic C. albicans cells were removed as above before the addition of S. aureus or E. coli (100 μL, 5.0×10^6 cells per mL). Bacteria were allowed to adhere to the C. albicans biofilms for 4 h to facilitate polymicrobial biofilm formation. Following a washing step, the biofilms were then treated with peptoid (10–100 μM), and incubated for a further 24 h to allow biofilm maturation. Wells were washed as above, and the polymicrobial biofilms were quantified by PMA‐modified qPCR.
(§2) Biofilm quantification by PMA‐modified qPCR: In order to determine the bactericidal and fungicidal activity of peptoids against single‐species and polymicrobial biofilms, the biofilms were detached from the microtitre plate wells prior to quantification. The wells were washed as above, then BHI broth (100 μL) was added and the plate was sealed. […]
(§3) Generation of standard curves for PMA‐qPCR: For quantification of C. albicans, S. aureus and E. coli in single‐species and polymicrobial biofilms, DNA standards were prepared by extraction of DNA from planktonic organisms with the microLYSIS‐Plus kit and purification with a DNeasy kit (Qiagen). […]
In general terms: In qPCR the cycle at which signal appears reflects the starting amount.

Data set [2] deals with C. albicans (NCTC 3179) biofilm. The data set is described as follows: Crystal violet assay, C. albicans monospecies biofilm. Format: cell-based, Candida albicans. To be noted: peptoid 100 μM, 24 h treatment of 4 h biofilm; n=3. On the procedure:
(§4) Microorganism strains and growth conditions: C. albicans (NCTC 3179) was subcultured aerobically on Sabouraud agar plates, prepared by using Sabouraud dextrose powder and agar (Oxoid, ThermoFisher) and propagated in yeast peptone dextrose broth. E. coli (ATCC 29522) and S. aureus (NCTC 6571) were grown on blood agar plates (Fanin, Dublin, Ireland) and propagated in brain heart infusion (BHI) broth (Oxoid, ThermoFisher).
(§5) Preparation and treatment of single‐species biofilms: Overnight cultures of C. albicans were washed and resuspended (1.0×10^6 cells per mL) in RPMI‐1640 (Sigma–Aldrich). Overnight cultures of S. aureus or E. coli were washed and resuspended (5.0×10^6 cells per mL) in BHI broth. Samples (100 μL) were added to microtitre plate wells (Thermo Fisher Scientific), and a biofilm was allowed to form for 4 h. Wells were washed with PBS (3×200 μL) to facilitate removal of planktonic cells, and the biofilms were then treated with 1–18 (100 μM in the appropriate medium). Plates were incubated for a further 24 h to allow biofilm maturation. After removal of planktonic cells by washing, biofilms were quantified by the crystal violet assay or by PMA‐qPCR.
(§6) Biofilm quantification by crystal violet assay: Washed biofilms were fixed with methanol (100 μL) for 10 min. Following removal of methanol, the wells were air dried and stained with crystal violet solution (Clin‐Tech, Guildford, UK) for 20 min at room temperature. Excess stain was removed by washing, then the plate was air‐dried and bound crystal violet was re‐solubilised in acetic acid (33 %, 160 μL) prior to reading at 570 nm in a GENios microtitre plate reader (Tecan, Zürich, Switzerland).

In data set [3] the test system is E. coli monospecies biofilm. The data set is described as follows: PMA-qPCR viable cell number, E. coli monospecies biofilm. To be noted: peptoid 100 μM, 24 h; n=3. The class given is cell-based, Escherichia coli. As for the experimental part: as §5
(§7) Biofilm quantification by PMA‐modified qPCR: In order to determine the bactericidal and fungicidal activity of peptoids against single‐species and polymicrobial biofilms, the biofilms were detached from the microtitre plate wells prior to quantification. The wells were washed as above, then BHI broth (100 μL) was added and the plate was sealed. Biofilm detachment was achieved by sonication for 5 min in an ultrasonic bath (Dawe, Hayes, Middlesex, UK). The remaining cells were then collected in BHI (80 μL). […]
(§8) Generation of standard curves for PMA‐qPCR: For quantification of C. albicans, S. aureus and E. coli in single‐species and polymicrobial biofilms, DNA standards were prepared by extraction of DNA from planktonic organisms with the microLYSIS‐Plus kit and purification with a DNeasy kit (Qiagen). DNA standards (10^1–10^6 cells) were used in PMA‐qPCR assays to generate standard curves from which the numbers of living organisms within the biofilms could be determined.

The test system of data set [4] is E. coli (ATCC 29522) biofilm. Kind of data set: Crystal violet assay, E. coli monospecies biofilm. The class given is cell-based, Escherichia coli. To be noted: peptoid 100 μM, 24 h treatment of 4 h biofilm; n=3. As for the experimental part: as §4, §5, §6
Data set [5] relates to C. albicans monospecies biofilm. Kind of data set: PMA-qPCR viable cell number, C. albicans monospecies biofilm. Format: cell-based, Candida albicans. To be noted: peptoid 100 μM, 24 h; n=3. As for the experimental part:
as §5, §7, §8

In data set [6] the test system is C. albicans in polymicrobial biofilm with S. aureus. The data set is described as follows: PMA-qPCR, C. albicans within C. albicans-S. aureus polymicrobial biofilm. Format: cell-based, Candida albicans. As for the experimental part:
as §1, §7, §8

Data set [7] deals with C. albicans in polymicrobial biofilm with E. coli. Kind of data set: PMA-qPCR, C. albicans within C. albicans-E. coli polymicrobial biofilm. Format: cell-based, Candida albicans. As for the experimental part:
as §1, §2, §3

Data set [8] deals with S. aureus in polymicrobial biofilm with C. albicans. The data set is described as follows: PMA-qPCR, S. aureus within C. albicans-S. aureus polymicrobial biofilm. Format: cell-based, Staphylococcus aureus. To be noted: PMA-qPCR. On the procedure:
as §1
Biofilm quantification by PMA‐modified qPCR: In order to determine the bactericidal and fungicidal activity of peptoids against single‐species and polymicrobial biofilms, the biofilms were detached from the microtitre plate wells prior to quantification. The wells were washed as above, then BHI broth (100 μL) was added and the plate was sealed. Biofilm detachment was achieved by sonication for 5 min in an ultrasonic bath (Dawe, Hayes, Middlesex, UK). The remaining cells were then collected in BHI (80 μL). PMA (20 μL, 2 mM in broth;47 Biotium, Fremont, CA) was added to the biofilm suspensions […] and incubated (37 °C, 5 min) prior to photoactivation with a broad‐spectrum LED flood light (60 LED, 0.1 W) placed 15 cm from the tubes (mixed by inversion during the 20 min photoactivation step).48 DNA was extracted by using a microLYSIS‐Plus kit (Microzone, Haywards Heath, UK), and qPCR was performed in a Mx3005P qPCR System (Agilent Technologies).49, 50, 51 See the Tables in the Supporting Information.
as §8

For the next data set, the system named is HaCaT. Kind of data set: alamarBlue cytotoxicity assay, HaCaT keratinocytes. For orientation: The colour change of resazurin is a common sign of viable cells or microbes.
For data set [9], the system named is S. aureus monospecies biofilm. Kind of data set: PMA-qPCR viable cell number, S. aureus monospecies biofilm. The class given is cell-based, Staphylococcus aureus. To be noted: peptoid 100 μM, 24 h; n=3. As for the experimental part:
as §5, §2, §3

The next data set concerns HepG2. The data set is described as follows: alamarBlue cytotoxicity assay, HepG2 cells.
Data set [10] deals with S. aureus (NCTC 6571) biofilm. The data set is described as follows: Crystal violet assay, S. aureus monospecies biofilm. Format: cell-based, Staphylococcus aureus. To be noted: peptoid 100 μM, 24 h treatment of 4 h biofilm; n=3. On the procedure:
as §4, §5, §6

Setting [11] is: alamarBlue viability, 2-100 μM from DMSO stock, 1 h with compound then 24 h incubation at 37 °C, fluorescence, triplicate on a minimum of two occasions.

Experimental for HaCaT: (§9) Peptoid cytotoxicity studies: All 18 peptoids were tested for cytotoxicity against HepG2 epithelial (Sigma–Aldrich) and HaCaT keratinocyte (ThermoFisher) cell lines, Cytotoxicity analyses were performed in Costar 96‐well plates (Thermo Fisher Scientific) with alamarBlue (Invitrogen/Thermo Fisher Scientific) for cell viability detection as described by the manufacturer. HepG2 and HaCaT cells were grown at 37 °C under CO2 (5 %) in DMEM (high glucose) supplemented with heat‐inactivated foetal bovine sera (FBS, 10 %; Biosera, Uckfield, UK) and penicillin/streptomycin (1 %). Cells were counted in a Neubauer Improved Haemocytometer. HepG2 or HaCaT cells were seeded 24 h prior to treatment in 96‐well plates (2×10^4 cells per well in 100 μL). After 24 h, cells were incubated in triplicate with a dilution series of compound (2–100 μM from 5 mM stock solutions in DMSO) in the medium (50 μL) for 1 h. An aliquot (40 μL) was removed from each well, before the addition of medium (90 μL) followed by incubation for 24 h (37 °C, 5 % CO2). Then, alamarBlue (10 μL) was added to each well before incubation (2 h for Hep G2, 1 h for HaCaT) prior to assessing cell viability in a fluorescent plate reader (Biotek, Winooski, VT; λ ex=560 nm, λ em=600 nm). All data were measured in triplicate on a minimum of two occasions.
(§10) Toxicity was determined using an alamarBlue® cytotoxicity assay.
Experimental for HepG2: as §9, §10

Take (NahNspeNspe)3 [Peptoid 17]: the “Reduction in E. coli cell number in mixed biofilm with C. albicans (PMA-qPCR)” value in data set [1] (peptoid 100 μM, 24 h, n=3) is reported as “the most active”. In addition, the “Reduction in E. coli cell numbers in cross-kingdom biofilm, concentration series” value in [1] (peptoid 10-100 μM, PMA-qPCR) is given as “the greatest reduction in cell numbers”. Also, the “Efficacy against C. albicans monospecies biofilm (biomass, crystal violet)” value in data set [2] is reported as “amongst the most efficacious”. Moreover, in data set [3], the “Reduction in viable cell number, E. coli monospecies biofilm (PMA-qPCR)” value was “the most effective”. The “Efficacy against E. coli monospecies biofilm (biomass, crystal violet)” value in [4] is given as “amongst the most efficacious”. Moreover, the “Reduction in viable cell number, C. albicans monospecies biofilm (PMA-qPCR)” value in data set [5] was “still caused a significant reduction in the fungal biofilm”. Besides, the “Reduction in C. albicans cell number in mixed biofilm with S. aureus (PMA-qPCR)” value in data set [6] (peptoid 100 μM, 24 h, n=3) is listed as “less susceptible”. The “Reduction in C. albicans cell numbers in cross-kingdom biofilm with S. aureus, concentration series” value in data set [6] (peptoid 10-100 μM, PMA-qPCR) is on record as “the greatest reduction in cell numbers”. For the same substance, in data set [7] (peptoid 100 μM, 24 h, n=3), the “Reduction in C. albicans cell number in mixed biofilm with E. coli (PMA-qPCR)” value is recorded as “the most active”. The “Reduction in C. albicans cell numbers in cross-kingdom biofilm with E. coli, concentration series” value in data set [7] (peptoid 10-100 μM, PMA-qPCR) was “the greatest reduction in cell numbers”. The “Reduction of cell numbers of S. aureus in mixed-species biofilm” value in data set [8] (peptoid 10 μM, 24 h) is given as roughly 100%. Besides, the “Reduction in S. aureus cell numbers in cross-kingdom biofilm, concentration series” value in data set [8] (peptoid 10-100 μM) is on record as “the greatest reduction in cell numbers”. Besides, the “ED50 HaCaT” value with HaCaT (setting [11]) is recorded as greater than 100 µM. Besides, the “Toxicity to HaCaT cells (in words)” value in the data set with HaCaT (alamarBlue, up to 100 μM) is listed as “negligible toxicity”. The “Reduction in viable cell number, S. aureus monospecies biofilm (PMA-qPCR)” value in data set [9] is “approximately two orders of magnitude”. For the same substance, in the data set with HepG2 (setting [11]), the “ED50 HepG2” value was greater than 100 µM. In addition, the “Toxicity to HepG2 cells (in words)” value in the data set on HepG2 (alamarBlue, up to 100 μM) is given as “negligible toxicity”. Also, in data set [10], the “Efficacy against S. aureus monospecies biofilm (biomass, crystal violet)” value is recorded as “amongst the most efficacious”.
